Legend:
Format in all cases: cell-based
AKR1C3 [1] = target: T1, AKR1C3 (Homo sapiens, UniProt P42330); experiment: AKR1C3 protein degradation in 22Rv1 prostate cancer cells (Western blot); design: 22Rv1 prostate cancer cells that express high levels of AKR1C3; host or cells: 22Rv1; conditions: read-out: AKR1C3 DC50 (half-maximal degradation concentration); 72 hours
T1 sequence (P42330 1-323): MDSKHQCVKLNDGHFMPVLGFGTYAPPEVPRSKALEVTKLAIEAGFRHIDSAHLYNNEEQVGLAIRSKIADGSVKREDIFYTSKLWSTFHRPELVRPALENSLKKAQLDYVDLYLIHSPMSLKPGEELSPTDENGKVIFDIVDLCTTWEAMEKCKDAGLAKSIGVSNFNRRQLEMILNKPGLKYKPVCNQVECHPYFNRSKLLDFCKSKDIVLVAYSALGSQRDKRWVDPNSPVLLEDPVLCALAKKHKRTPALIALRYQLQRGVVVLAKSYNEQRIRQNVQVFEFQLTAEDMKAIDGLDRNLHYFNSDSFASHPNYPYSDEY

AKR1C3 [2] = target: T1, AKR1C3; experiment: as above; design: 22Rv1 prostate cancer cells that express high levels of AKR1C3; host or cells: 22Rv1
Experimental: Protein Expression via Western Blot. 22Rv1 cells were seeded in a 6-well plate and incubated overnight. Next day, the cells were treated with varying concentrations of 6 (1 and 10 μM) and 5 (0.5, 1, 10, 50, 100, 250, and 500 nM; 1, 10, and 50 μM) for 24 hours and 5 (1 and 10 nM) at different time points (0, 2, 4, 6, 12, 16, 24, 48, and 72 h). Whole cell lysates were extracted in RIPA lysis buffer containing protease inhibitor and EDTA (Fisher Scientific, PI78440). Protein concentrations in each sample was estimated following BCA assay (Pierce™ BCA protein assay kit, Fisher Scientific, PI23227) as per the manufacturer's protocol. Proteins were standardized using RIPA lysis buffer with Laemelli SDS sample buffer (Thermo Scientific, AAJ61337AC) and heated at 1000C for 15 minutes. The proteins were resolved on a 4-12% premade gel (Invitrogen, NW04120BOX) at 60-90 V in 20× Bolt™ MES SDS running buffer (Fisher Scientific, B000202) and transferred onto a nitrocellulose membrane (Invitrogen, IB23001) using iBlot 2. The membranes were blocked with 2.5% non-fat dry milk (Bio-Rad, 1706404) for 1 h, and the membrane was incubated overnight on a rocking platform at 4 °C with the desired primary antibodies against AKR1C3 (mouse mAb, 1:200, Sigma, A6229), AKR1C1/C2 (rabbit mAb, 1:500, Abcam, ab179448), ARv7 (rabbit mAb, 1:500, Abcam, ab198394) and actin (mouse mAb, 1:1,000, ThermoFisher, MA5-11869). The membranes were washed three times, 10 minutes each, with 1×Tris-buffered saline (TBST, Bio-Rad, 1706435) in 0.1% Tween 20, on a rocking platform wherein they were incubated with rabbit anti-mouse IgG (ThermoFisher, 31450) or goat anti-rabbit IgG (Jackson ImmunoResearch, 111-035-003) secondary antibody (1:1,000) horseradish peroxidase conjugate for 1 hour. The membranes were again washed three times with 1×TBST, upon which they were exposed to LI-COR WesternSure PREMIUM chemiluminescent substrate (Fisher Scientific, 50-489-552) and developed in a dark room with Konica Minolta equipment. Bands were quantified by densitometry using ImageJ software and fold change in AKR1C3, AKR1C1/C2, and ARv7 protein expression was determined based on actin controls. […]
The AKR1C3 degradation effect of PROTAC 5 was screened across a range of concentrations to identify a suitable treatment protocol. 22Rv1 cells were treated with increasing concentrations of […], DMSO or lenalidomide 6 at 1 μM and 10 μM for 24 hours, and the degradation profile was determined by Western blot analysis with antibody for AKR1C3.

[3] = test system: 22Rv1 prostate cancer cells; experiment: 22Rv1 cell viability (MTS assay); conditions: 72 h
Experimental: Cell culture and reagents. 22Rv1 cells were purchased from the American Type Culture Collection (ATCC in 2016) and cultured in RPMI 1640 supplemented with 10% Fetal Bovine Serum (FBS, Fisher Scientific, MT35011CV) and Penicillin-Streptomycin Solution (1%, Fisher Scientific, MT30001Cl) at 37 °C in a humidified incubator with 5% carbon dioxide atmosphere. Stock solutions of E3 ligase ligand, lenalidomide 6 (10 mM), PROTAC 5 (25 mM), and AKR1C3 inhibitor 3 (100 mM) were prepared in DMSO.
Cell viability assay. Cells were seeded at a density of 10,000 cells/well in a 96-well plate containing 100 μL growth media per well and were incubated at 37 °C in a humidified incubator with 5% carbon dioxide over ~18-24 hours. Cells were treated with 6, 5, and 3 serially diluted at the indicated concentrations limiting the final DMSO concentration to less than 0.1% and incubated at 37 °C for 72 hours. 10 μL of MTS reagent (CellTiter96®Aqueous One Solution Reagent, Promega, G3580) was added to each well and incubated at the above-mentioned conditions for 4 hours. Absorbance was recorded at OD 490 nm on a Synergy LX multi-mode reader and the viability of cells were plotted as percentage of DMSO control.

## O=C(O)/C=C/c1cc(C(=O)NCc2ccc(OCc3cn(CCOCCOCC(=O)Nc4cccc5c4CN(C4CCC(=O)NC4=O)C5=O)nn3)cc2)cc(-c2ccccc2)c1 (centres unmarked) [Compound IA, (E)-3-(5-((4-((1-(2-(2-(2-((2-(2,6-dioxopiperidin-3-yl)-1-oxoisoindolin-4-yl)amino)-2-oxoethoxy)ethoxy)ethyl)-1H-1,2,3-triazol-4-yl)methoxy)benzyl)carbamoyl)-[1,1 ? biphenyl]-3-yl)acrylic acid]
AKR1C3 [1]
  DC50: 0.052 µM
AKR1C3 [2]; 0.5 nM, 24 h, in words
  mean AKR1C3 degradation: no degradation
AKR1C3 [2]; 1 nM, 24 through 72 hours post-treatment, in words
  time course of AKR1C3 levels: time-dependent decrease in AKR1C3 levels
AKR1C3 [2]; 1 nM, post-treatment
  onset of decrease in AKR1C3 levels: 24 h
AKR1C3 [2]; 10 nM, 0-72 h
  degradation of AKR1C3 (in words): significant degradation
AKR1C3 [2]; 10 nM, 2 hour pretreatment with MG132 (3 μM), in words
  AKR1C3 degradation after proteasome inhibitor pretreatment: effectively blocked
AKR1C3 [2]; 10 nM, 4 hours of treatment, in words
  AKR1C3 protein expression: effectively reduced AKR1C3 protein expression
AKR1C3 [2]; 10 nM, 72 hour incubation, in words
  AKR1C3 degradation compared with Compound 3: outperformed Compound 3
AKR1C3 [2]; 10 nM, post-treatment
  onset of AKR1C3 degradation: 4 h
AKR1C3 [2]; 1-50 μM, 24 h, in words
  AKR1C3 expression: increased AKR1C3 expression
AKR1C3 [2]; 22Rv1, 10 nM, 72 hours, read-out: maximal degradation of AKR1C3
  Dmax at 0.01 µM: ~75%
AKR1C3 [2]; 100-500 nM, 24 h, in words
  AKR1C3 expression: increased AKR1C3 expression
[3]
  22Rv1 cell viability activity in words: equipotent
[3]; Homo sapiens, 22Rv1, MTS, mean±standard deviation of two independent experiments
  IC50: 49.3 ± 1.4 µM
